The results in this text go back to patent US20220340564A1, “ANTIBACTERIAL COMPOUNDS” (Janssen Sciences Ireland Unlimited Company, priority 2019, published 2022).

A value given as a limit tells only on which side of the number the result lay.

This assay relates to Mycobacterium tuberculosis strain EH4.0 expressing green-fluorescent protein (GFP). Kind of assay: microbe, parasite or virus in culture. The class given is cell-based. To be noted: 168 h, read-out: pIC50 (converted).
Turning to `CCc1nc2nc3c(cn2c1C(=O)NCc1ccc(N2CCN(S(=O)(=O)C(F)(F)F)C(OC)=N2)c(F)c1)CCC3` [Compound 158], the IC50 was 1.38 nM.
The result for `COC1=NN(c2ccc(CNC(=O)c3c(C(F)F)nc4ccccn34)cc2F)CCN1S(=O)(=O)C(F)(F)F` [Compound 160] reads 1.2 nM; that for `CCc1nc2c(F)cc(C)cn2c1C(=O)NCc1cnc(N2CCN(S(=O)(=O)C(F)(F)F)C=N2)c(F)c1` [Compound 181], 6.31 nM.
The result for `CCc1nc2ccc(Cl)cn2c1C(=O)NCc1ccc(N2CCN(S(=O)(=O)C(F)(F)F)C(C)=N2)cc1` [Compound 21] reads 2.51 nM; that for `CCc1nc2c(C)cc(F)cn2c1C(=O)NCc1ccc(N2CCN(S(=O)(=O)C(F)(F)F)C=N2)c(F)c1` [Compound 89], 83.2 nM; that for `CCc1nc2ncc(Cl)cn2c1C(=O)NCc1ccc(N2CCN(S(=O)(=O)C(F)(F)F)C(CCO)=N2)cc1` [Compound 41], 50.1 nM.
Consider `CCc1nc2cc(C)c(Cl)cn2c1C(=O)NCc1ccc(N2CCN(S(=O)(=O)C(F)(F)F)C=N2)cc1` [Compound 107], for which the IC50 is 24 nM.
As for `CCc1nc2c(Cl)cccn2c1C(=O)NCc1ccc(N2CCN(S(=O)(=O)C(F)(F)F)C=N2)c(F)c1` [Compound 129], the IC50 was 8.91 nM.
The result for `CCc1nc2cc(OC)c(Cl)cn2c1C(=O)NCc1ccc(N2CCN(S(=O)(=O)C(F)(F)F)C=N2)c(F)c1` [Compound 93] reads 49 nM.
The result for `CCc1nc2ncc(OC)cn2c1C(=O)NCc1ccc(N2CCN(S(=O)(=O)C(F)(F)F)C(OC)=N2)c(F)c1` [Compound 50] reads 1.07 nM.
With `CCc1nc2ncc(F)cn2c1C(=O)NCc1ccc(N2CCN(S(=O)(=O)C(F)(F)F)C=N2)c(F)c1` [Compound 130], the IC50 was 8.71 nM.
For `CCc1nc2cc(Cl)c(Cl)cn2c1C(=O)NCc1ccc(N2CCN(S(=O)(=O)C(F)(F)F)C=N2)c(F)c1` [Compound 118] the value was 13.8 nM; for `CCc1nc2n(ccc3ncnn32)c1C(=O)NCc1ccc(N2CCN(S(=O)(=O)C(F)(F)F)C=N2)c(F)c1` [Compound 207], 186 nM; for `CCc1nc2cc(OC)c(Cl)cn2c1C(=O)NCc1ccc(N2CCN(S(=O)(=O)C(F)(F)F)C(OC)=N2)c(F)c1` [Compound 46], 100 nM.
The result for `CCc1nc2c(N)cc(C)cn2c1C(=O)NCc1ccc(N2CCN(S(=O)(=O)C(F)(F)F)C=N2)c(F)c1` [Compound 212] reads 25.7 nM; that for `Cc1ccc2nc(C(F)(F)F)c(C(=O)NCc3ccc(N4CCN(S(=O)(=O)C(F)(F)F)C=N4)c(F)c3)n2c1` [Compound 175], 1.58 nM; that for `CCc1nc2c(Cl)cc(Cl)cn2c1C(=O)NCc1ccc(N2CCN(S(=O)(=O)C(F)(F)F)C=N2)c(F)c1` [Compound 87], 89.1 nM.
For `CCc1nc2sc(Cl)cn2c1C(=O)NCc1ccc(N2CCN(S(=O)(=O)C(F)(F)F)C=N2)c(F)c1` [Compound 135] the value was 7.24 nM.
For the molecule `CCc1nc2nc3c(cn2c1C(=O)NCc1ccc(N2CCN(S(=O)(=O)C(F)(F)F)C(OC)=N2)c(F)c1)CCOC3` [Compound 180], the IC50 was 3.98 nM.
Turning to `CCc1nc2nc(C)c(C)cn2c1C(=O)NCc1ccc(N2CCN(S(=O)(=O)C(F)(F)F)C(OC)=N2)c(F)c1` [Compound 211], the IC50 was 2.29 nM.
With `CCc1nc2cc(OC)c(C)cn2c1C(=O)NCc1ccc(N2CCN(S(=O)(=O)C(F)(F)F)C=N2)c(F)c1` [Compound 106], the IC50 is 25.7 nM.
The result for `CCc1nc2nc(OC)ccn2c1C(=O)NCc1ccc(N2CCN(S(=O)(=O)C(F)(F)F)C=N2)c(F)c1` [Compound 115] reads 15.8 nM; that for `CCc1nc2ccc(Cl)cn2c1C(=O)NCc1ccc(N2CCN(c3cccs3)C(OC)=N2)cc1` [Compound 120], 12.9 nM; that for `COC1=NN(c2ccc(CNC(=O)c3c(C(F)(F)F)nc4ccccn34)cc2F)CCN1S(=O)(=O)C(F)(F)F` [Compound 79], 3.72 nM.
For `COC1=NN(c2ccc(CNC(=O)c3c(C(F)F)nc4ccccn34)cc2)CCN1S(=O)(=O)C(F)(F)F` [Compound 149] the value was 3.55 nM.
The result for `CCc1nc2cc(Cl)c(OC)cn2c1C(=O)NCc1ccc(N2CCN(S(=O)(=O)C(F)(F)F)C=N2)cc1` [Compound 67] reads 200 nM; that for `CCc1nc2cccc(Cl)n2c1C(=O)NCc1ccc(N2CCN(S(=O)(=O)C(F)(F)F)C(OC)=N2)cc1` [Compound 70], at least 501 nM.
As for `CCc1nc2cc(Cl)c(C)cn2c1C(=O)NCc1ccc(N2CCN(S(=O)(=O)C(F)(F)F)C(OC)=N2)c(F)c1` [Compound 209], the IC50 was 11.2 nM.
For `CCc1nc2ccc(Cl)cn2c1C(=O)NCc1ccc(N2CCN(S(=O)(=O)CCOC)C=N2)cc1` [Compound 19] the value was 39.8 nM; for `CCc1nc2ncc(C(=O)NC)cn2c1C(=O)NCc1ccc(N2CCN(S(=O)(=O)C(F)(F)F)C=N2)cc1` [Compound 61], at least 501 nM; for `COC1=NN(c2ccc(CNC(=O)c3c(C(F)(F)F)nc4n3CCCC4)cc2)CCN1S(=O)(=O)C(F)(F)F` [Compound 98], 33.1 nM.
The result for `CCc1nc2cc(C)c(Cl)cn2c1C(=O)NCc1ccc(N2CCN(S(=O)(=O)C(F)(F)F)C(OC)=N2)c(F)c1` [Compound 132] reads 8.32 nM; that for `CCc1nc2cc(NC)c(Cl)cn2c1C(=O)NCc1ccc(N2CCN(S(=O)(=O)C(F)(F)F)C=N2)c(F)c1` [Compound 80], at least 501 nM; that for `CCc1nc2ccc(Cl)cn2c1C(=O)NCc1ccc(N2CCN(S(=O)(=O)C(F)(F)F)C(CN(C)C)=N2)cc1` [Compound 74], 6.76 nM.
The result for `CCc1nc2nc(C)c(F)cn2c1C(=O)NCc1ccc(N2CCN(S(=O)(=O)C(F)(F)F)C=N2)c(F)c1` [Compound 177] reads 7.94 nM; that for `CC1=NN(c2ccc(CNC(=O)c3c(C(F)(F)F)nc4ccccn34)cc2)CCN1S(=O)(=O)C(F)(F)F` [Compound 214], 13.5 nM.
As for `CCc1nc2nc(OC)c(Cl)cn2c1C(=O)NCc1ccc(N2CCN(S(=O)(=O)C(F)(F)F)C=N2)c(F)c1` [Compound 86], the IC50 is 89.1 nM.
The result for `COc1ccn2nc(C)c(C(=O)NCc3ccc(N4CCN(S(=O)(=O)C(F)(F)F)C=N4)cc3)c2c1` [Compound 14] reads 6.31 nM; that for `CCc1nc2nc3c(cn2c1C(=O)NCc1ccc(N2CCN(S(=O)(=O)C(F)(F)F)C=N2)c(F)c1)OCCN3C` [Compound 205], 66.1 nM; that for `CCc1nc2ncc(COC)cn2c1C(=O)NCc1ccc(N2CCN(S(=O)(=O)C(F)(F)F)C=N2)cc1` [Compound 33], 25.1 nM.
The result for `CCc1nc2cc(Cl)c(OC)cn2c1C(=O)NCc1ccc(N2CCN(S(=O)(=O)C(F)(F)F)C(OC)=N2)c(F)c1` [Compound 49] reads 23.4 nM.
For `CCc1nc2n(c1C(=O)NCc1ccc(N3CCN(S(=O)(=O)C(F)(F)F)C=N3)cc1)CCCC2` [Compound 3] the value was 31.6 nM.
Regarding `CCc1nc2ccc(C3CC3)cn2c1C(=O)NCc1ccc(N2CCN(S(=O)(=O)C(F)(F)F)C=N2)c(F)c1` [Compound 101], the IC50 is 29.5 nM.
For `CCc1nc2ccc(Cl)cn2c1C(=O)NCc1ccc(N2CCN(S(=O)(=O)C(F)(F)F)C(CC#N)=N2)cc1` [Compound 77] the value was 7.94 nM; for `CCc1nc2ccc(Cl)cn2c1C(=O)NCc1ccc(N2CCN(S(=O)(=O)C(F)(F)F)C(C)=N2)c(F)c1` [Compound 213], 3.47 nM; for `CCc1nc2ncc(Cl)cn2c1C(=O)NCc1ccc(N2CCN(S(=O)(=O)C(F)(F)F)C=N2)c(F)c1` [Compound 146], 3.8 nM.
The result for `CCc1nc2ccc(Cl)cn2c1C(=O)NCc1ccc(N2CCN(C=O)C=N2)cc1` [Compound 38] reads 63.1 nM; that for `CCc1nc2ncc(C)cn2c1C(=O)NCc1ccc(N2CCN(S(=O)(=O)C(F)(F)F)C(OC)=N2)cc1` [Compound 200], 5.5 nM; that for `Cc1cc(F)c2nc(C(F)(F)F)c(C(=O)NCc3cnc(N4CCN(S(=O)(=O)C(F)(F)F)C=N4)c(F)c3)n2c1` [Compound 184], 31.6 nM.
Consider `COC1=NN(c2ccc(CNC(=O)c3c(C(F)F)nc4n3CCCC4)cc2F)CCN1S(=O)(=O)C(F)(F)F` [Compound 137], for which the IC50 was 6.17 nM.
For `CCc1nc2ccc(OC)cn2c1C(=O)NCc1ccc(N2CCN(S(=O)(=O)C(F)(F)F)C(OC)=N2)c(F)c1` [Compound 48] the value was 1.58 nM; for `O=C(NCc1cnc(N2CCN(S(=O)(=O)C(F)(F)F)C=N2)c(F)c1)c1c(C(F)(F)F)nc2ccc(Cl)cn12` [Compound 167], 87.1 nM.
The result for `O=C(NCc1ccc(N2CCN(S(=O)(=O)C(F)(F)F)C=N2)c(F)c1)c1c(Br)nc2n1CCC2` [Compound 99] reads 32.4 nM; that for `Cc1cc(F)c2ncc(C(=O)NCc3cnc(N4CCN(S(=O)(=O)C(F)(F)F)C=N4)c(F)c3)n2c1` [Compound 178], 200 nM; that for `COC1=NN(c2ccc(CNC(=O)c3c(C(F)(F)F)nc4n3CCCC4)cc2F)CCN1S(=O)(=O)C(F)(F)F` [Compound 112], 17.4 nM.
The result for `CCc1nc2ccc(Cl)cn2c1C(=O)NCc1ccc(N2CCN(C(=O)C(F)(F)F)C=N2)cc1` [Compound 66] reads 251 nM; that for `CCOc1ccc2nc(CC)c(C(=O)NCc3ccc(N4CCN(S(=O)(=O)C(F)(F)F)C=N4)cc3)n2c1` [Compound 43], 10 nM.
On to `COC1=NN(c2ccc(CNC(=O)c3c(C(F)(F)F)nc4ccccn34)cc2)CCN1S(=O)(=O)C(F)(F)F` [Compound 150], for which the IC50 is 2.95 nM.
The result for `O=C(NCc1ccc(N2CCN(S(=O)(=O)C(F)(F)F)C=N2)c(F)c1)c1c(C(F)(F)F)nc2c(F)cccn12` [Compound 186] reads 3.63 nM.
`CCc1nc2ncc(Cl)cn2c1C(=O)NCc1ccc(N2CCN(C(C)=O)C=N2)cc1` [Compound 24]: the IC50 was 15.8 nM.
Take `CCc1nc2ccc(Cl)cn2c1C(=O)NCc1ccc(N2CCN(Cc3nc(C(F)(F)F)cs3)C=N2)cc1` [Compound 69]: the IC50 was 126 nM.
The result for `Cc1cn2c(C(=O)NCc3ccc(N4CCN(S(=O)(=O)C(F)(F)F)C=N4)c(F)c3)c(C(F)(F)F)nc2s1` [Compound 136] reads 6.31 nM; that for `CCc1nc2ccc(C#N)cn2c1C(=O)NCc1ccc(N2CCN(S(=O)(=O)C(F)(F)F)C(OC)=N2)cc1` [Compound 71], 166 nM.
